# Like-named read-outs stand apart in the source and are kept apart here. Starred links: 1 amine or outer side, 2 acyl side, 3 side chain; linkers in the order of their positions; H or OH if unused. Positions of bridges follow the written chain, without caps; N, C: chain ends. Residues, ends and D or L forms follow the SMILES beside them. *: point of attachment. C20 diacid = O=C(O)CCCCCCCCCCCCCCCCCCC(=O)*; C18 diacid = O=C(O)CCCCCCCCCCCCCCCCC(=O)*; γGlu = O=C(O)[C@H](CCC(=O)[*:2])N[*:1]
# Tests used:
# [1] = Assay (III) ThT fibrillation assay for physical stability; format: physicochemical
# Outline: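 Freshly prepared formulations, pH-adjusted, with 1 μM ThT; four or eight replicates incubated at 37 °C under 960 rpm orbital shaking. Fluorescence (ex 444/em 485 nm) read every 20 min; […]. Peptide concentration measured by RP-HPLC before and after the run.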
# [2] = Assay (IV) determination of solubility; format: physicochemical
# Outline: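 Solubility is measured across pH 3.0–8.0 by mixing a ~500 nmol/ml aqueous polypeptide stock 1:1 with 100 mM glycylglycine or bistrispropane buffers. Samples stand 18 hours at room temperature, then are centrifuged and the soluble concentration is determined by HPLC.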
# [3] = molecular target: T1, human amylin receptor (amylin 3(a) receptor: human calcitonin receptor + RAMP-3) (Homo sapiens, UniProt O60896+P30988); test: Assay (II)a functional CRE-luciferase assay, human amylin receptor; format: cell-based; details: Table 2; BHK amylin 3(a)-receptor/CRE-luc cells
# T1 construct: expressed in transfected cells; host or cells: BHK570
# T1 sequence (P30988 25-474): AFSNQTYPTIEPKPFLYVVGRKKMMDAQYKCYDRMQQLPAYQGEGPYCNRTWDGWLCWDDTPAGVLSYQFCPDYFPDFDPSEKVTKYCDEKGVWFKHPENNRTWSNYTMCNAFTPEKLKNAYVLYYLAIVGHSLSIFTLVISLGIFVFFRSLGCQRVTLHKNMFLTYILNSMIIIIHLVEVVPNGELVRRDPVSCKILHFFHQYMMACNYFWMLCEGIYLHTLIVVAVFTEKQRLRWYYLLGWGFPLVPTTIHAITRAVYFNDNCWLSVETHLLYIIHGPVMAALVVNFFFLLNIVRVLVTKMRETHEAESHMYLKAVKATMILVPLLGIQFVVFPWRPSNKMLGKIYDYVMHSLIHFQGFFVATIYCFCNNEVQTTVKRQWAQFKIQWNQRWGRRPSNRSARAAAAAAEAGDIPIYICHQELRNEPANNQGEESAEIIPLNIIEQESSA
# T1 sequence (O60896 24-148 partner): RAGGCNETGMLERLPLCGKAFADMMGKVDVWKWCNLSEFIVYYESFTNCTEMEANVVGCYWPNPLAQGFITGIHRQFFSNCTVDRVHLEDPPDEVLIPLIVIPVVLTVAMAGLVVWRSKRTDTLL
# [4] = molecular target: T2, human calcitonin receptor (Homo sapiens, UniProt P30988); test: Assay (II)a functional CRE-luciferase assay, human calcitonin receptor; format: cell-based; details: Table 7; human calcitonin (CTa) receptor
# T2 construct: expressed in transfected cells; host or cells: BHK570
# T2 sequence (P30988 25-474): T1 sequence (P30988 25-474)
# [5] = bistrispropane buffer, pH 6, pH 6.0, read-out: Solubility pH 6.0
# [6] = bistrispropane buffer, pH 6.5, pH 6.5, read-out: Solubility pH 6.5
# [7] = bistrispropane buffer, pH 7, pH 7.0, read-out: Solubility pH 7.0
# [8] = bistrispropane buffer, pH 7.5, pH 7.5, read-out: Solubility pH 7.5
# [9] = bistrispropane buffer, pH 8, pH 8.0, read-out: Solubility pH 8.0
# [10] = glycylglycine buffer, pH 3, pH 3.0, read-out: Solubility pH 3.0
# [11] = glycylglycine buffer, pH 4, pH 4.0, 18 hours at room temperature, Table 2, read-out: Solubility pH 4.0
# [12] = glycylglycine buffer, pH 4, pH 4.0, read-out: Solubility pH 4.0
# [13] = glycylglycine buffer, pH 5, pH 5.0, read-out: Solubility pH 5.0
# [14] = bistrispropane buffer, pH 7, pH 7.0, 18 hours at room temperature, Table 3, read-out: Solubility pH 7.0
ThT pH 4.0 lag time ([1]; ThT fibrillation assay) [h],ThT pH 4.0 lag time (h) ([1]; ThT fibrillation assay),"solubility at 18 h [2, 5] [µM]","solubility at 18 h [2, 6] [µM]","solubility at 18 h [2, 7] [µM]","solubility at 18 h [2, 8] [µM]","solubility at 18 h [2, 9] [µM]","solubility at 18 h [2, 10] [µM]","solubility at 18 h [2, 11] [µM]","solubility at 18 h [2, 12] [µM]","solubility at 18 h [2, 13] [µM]",EC50 [3] [nM],EC50 [4] [nM],"solubility at 18 h [2, 14] [µM]",ThT pH 4.0 lag time ([1]; Table 8) [h],ThT pH 4.0 lag time ([1]; Table 9) [h],"solubility at 18 h ([2]; bistrispropane buffer, pH 7, pH 7.0, Table 8, read-out: Solubility pH 7.0) [µM]","solubility at 18 h ([2]; bistrispropane buffer, pH 7, pH 7.0, Table 9, read-out: Solubility pH 7.0) [µM]","solubility at 18 h ([2]; bistrispropane buffer, pH 7.5, pH 7.5, Table 9, read-out: Solubility pH 7.5) [µM]",Compound
>45,>45,185,64,22,47,109,> 200,> 200,> 200,> 200,0.133,0.153,,,,,,,"CC[C@H](C)[C@H](NC(=O)[C@@H]1CCCN1C(=O)CNC(=O)[C@H](Cc1ccccc1)NC(=O)[C@H](CC(N)=O)NC(=O)[C@H](CC(N)=O)NC(=O)[C@H](CO)NC(=O)[C@H](CO)NC(=O)[C@H](Cc1c[nH]cn1)NC(=O)[C@H](Cc1c[nH]cn1)NC(=O)[C@H](CC(C)C)NC(=O)[C@H](Cc1ccccc1)NC(=O)[C@H](CCC(=O)O)NC(=O)[C@H](C)NC(=O)[C@H](CC(C)C)NC(=O)[C@H](CCCNC(=N)N)NC(=O)[C@H](CCC(N)=O)NC(=O)[C@@H](NC(=O)[C@H](C)NC(=O)[C@@H]1CSSC[C@H](NC(=O)[C@H](CCCCN)NC(=O)[C@H](CO)NC(=O)CC[C@H](NC(=O)CCCCCCCCCCCCCCCCCCC(=O)O)C(=O)O)C(=O)N[C@@H](CC(N)=O)C(=O)N[C@@H]([C@@H](C)O)C(=O)N[C@@H](C)C(=O)N[C@@H]([C@@H](C)O)C(=O)N1)[C@@H](C)O)C(=O)N[C@@H](CC(C)C)C(=O)N1CCC[C@H]1C(=O)N1CCC[C@H]1C(=O)N[C@H](C(=O)N[C@@H](CC(N)=O)C(=O)N[C@H](C(=O)NCC(=O)N[C@@H](CO)C(=O)N[C@@H](Cc1c[nH]cn1)C(=O)N[C@H](C(=O)N[C@@H](Cc1ccc(O)cc1)C(N)=O)[C@@H](C)O)C(C)C)[C@@H](C)O [Example 85, N-alpha-[(S)-4-Carboxy-4-(19-carboxynonadecanoylamino)butyryl]-Ser-[Glu14,His17,His35]-pramlintide] ({C20 diacid-γGlu}-SKCNTATCATQRLAEFLHHSSNNFGPILPPTNVGSHTY-NH2; disulfide 3-8 (inferred); C-terminus assumed)"
,24,> 200,194,> 200,> 200,> 200,> 200,> 200,> 200,> 200,0.391,0.247,> 200,,,,,,"CC[C@H](C)[C@H](NC(=O)[C@@H]1CCCN1C(=O)CNC(=O)[C@H](Cc1ccccc1)NC(=O)[C@H](CC(N)=O)NC(=O)[C@H](CCC(N)=O)NC(=O)[C@H](CO)NC(=O)[C@H](CO)NC(=O)[C@H](Cc1c[nH]cn1)NC(=O)[C@H](Cc1c[nH]cn1)NC(=O)[C@H](CC(C)C)NC(=O)[C@H](Cc1ccccc1)NC(=O)[C@H](CCC(=O)O)NC(=O)[C@H](C)NC(=O)[C@H](CC(C)C)NC(=O)[C@H](CCCNC(=N)N)NC(=O)[C@H](CCC(N)=O)NC(=O)[C@@H](NC(=O)[C@H](C)NC(=O)[C@@H]1CSSC[C@H](NC(=O)[C@H](CCCCN)NC(=O)[C@H](CCC(=O)O)NC(=O)CC[C@H](NC(=O)CCCCCCCCCCCCCCCCCCC(=O)O)C(=O)O)C(=O)N[C@@H](CC(N)=O)C(=O)N[C@@H]([C@@H](C)O)C(=O)N[C@@H](C)C(=O)N[C@@H]([C@@H](C)O)C(=O)N1)[C@@H](C)O)C(=O)N[C@@H](CC(C)C)C(=O)N1CCC[C@H]1C(=O)N1CCC[C@H]1C(=O)N[C@H](C(=O)N[C@@H](CC(N)=O)C(=O)N[C@H](C(=O)NCC(=O)N[C@@H](CO)C(=O)N[C@@H](Cc1c[nH]cn1)C(=O)N[C@H](C(=O)N[C@@H](Cc1ccc(O)cc1)C(N)=O)[C@@H](C)O)C(C)C)[C@@H](C)O [Example 129, N-alpha-[(S)-4-Carboxy-4-(19-carboxynonadecanoylamino)butyryl]-Glu-[Glu14,His17,Gln21,His35]-pramlintide] ({C20 diacid-γGlu}-EKCNTATCATQRLAEFLHHSSQNFGPILPPTNVGSHTY-NH2; disulfide 3-8 (inferred); C-terminus assumed)"
>45,>45,> 200,> 200,> 200,> 200,188,> 200,> 200,> 200,186,0.09,0.076,> 200,>45,>45,> 200,> 200,> 200,"CC[C@H](C)[C@H](NC(=O)[C@@H]1CCCN1C(=O)CNC(=O)[C@H](Cc1ccccc1)NC(=O)[C@H](CO)NC(=O)[C@H](CO)NC(=O)[C@H](CO)NC(=O)[C@H](CO)NC(=O)[C@H](CCCNC(=N)N)NC(=O)[C@@H](NC(=O)[C@H](CC(C)C)NC(=O)[C@H](Cc1ccccc1)NC(=O)[C@H](CCC(=O)O)NC(=O)[C@H](C)NC(=O)[C@H](CC(C)C)NC(=O)[C@H](CCCNC(=N)N)NC(=O)[C@H](CCC(N)=O)NC(=O)[C@@H](NC(=O)[C@H](C)NC(=O)[C@@H]1CSSC[C@H](NC(=O)[C@H](CCCCN)NC(=O)CC[C@H](NC(=O)CCCCCCCCCCCCCCCCCCC(=O)O)C(=O)O)C(=O)N[C@@H](CC(N)=O)C(=O)N[C@@H]([C@@H](C)O)C(=O)N[C@@H](C)C(=O)N[C@@H]([C@@H](C)O)C(=O)N1)[C@@H](C)O)C(C)C)C(=O)N[C@@H](CC(C)C)C(=O)N[C@@H](CO)C(=O)N[C@@H](CO)C(=O)N[C@H](C(=O)N[C@@H](CC(=O)O)C(=O)N[C@H](C(=O)NCC(=O)N[C@@H](CO)C(=O)N[C@@H](CC(=O)O)C(=O)N[C@H](C(=O)N1CCC[C@H]1C(N)=O)[C@@H](C)O)C(C)C)[C@@H](C)O [Example 170, N-alpha-[(S)-4-Carboxy-4-(19-carboxynonadecanoylamino)butyryl]-[Glu14,Arg18,Ser21,Ser22,Ser28,Ser29,Asp31,Asp35,Pro37]-pramlintide] ({C20 diacid-γGlu}-KCNTATCATQRLAEFLVRSSSSFGPILSSTDVGSDTP-NH2; disulfide 2-7 (inferred))"
>45,>45,> 200,69,32,52,89,> 200,> 200,> 200,> 200,0.0585,0.099,,,,,,,"CC[C@H](C)[C@H](NC(=O)[C@@H]1CCCN1C(=O)CNC(=O)[C@H](Cc1ccccc1)NC(=O)[C@H](CC(N)=O)NC(=O)[C@H](CC(N)=O)NC(=O)[C@H](CO)NC(=O)[C@H](CO)NC(=O)[C@H](Cc1c[nH]cn1)NC(=O)[C@H](Cc1c[nH]cn1)NC(=O)[C@H](CC(C)C)NC(=O)[C@H](Cc1ccccc1)NC(=O)[C@H](CCC(=O)O)NC(=O)[C@H](C)NC(=O)[C@H](CC(C)C)NC(=O)[C@H](CCCNC(=N)N)NC(=O)[C@H](CCC(N)=O)NC(=O)[C@@H](NC(=O)[C@H](C)NC(=O)[C@@H]1CSSC[C@H](NC(=O)[C@H](CCCCN)NC(=O)[C@H](Cc2c[nH]cn2)NC(=O)CC[C@H](NC(=O)CCCCCCCCCCCCCCCCC(=O)O)C(=O)O)C(=O)N[C@@H](CC(N)=O)C(=O)N[C@@H]([C@@H](C)O)C(=O)N[C@@H](C)C(=O)N[C@@H]([C@@H](C)O)C(=O)N1)[C@@H](C)O)C(=O)N[C@@H](CC(C)C)C(=O)N1CCC[C@H]1C(=O)N1CCC[C@H]1C(=O)N[C@H](C(=O)N[C@@H](CC(N)=O)C(=O)N[C@H](C(=O)NCC(=O)N[C@@H](CO)C(=O)N[C@@H](Cc1c[nH]cn1)C(=O)N[C@H](C(=O)N[C@@H](Cc1ccc(O)cc1)C(N)=O)[C@@H](C)O)C(C)C)[C@@H](C)O [Example 70, N-alpha-[(S)-4-Carboxy-4-(17-carboxyheptadecanoylamino)butyryl]-His-[Glu14,His17,His35]-pramlintide] ({C18 diacid-γGlu}-HKCNTATCATQRLAEFLHHSSNNFGPILPPTNVGSHTY-NH2; disulfide 3-8 (inferred); C-terminus assumed)"
